The series can be described thus: logP determination by HPLC (EEC directive 79/831 Annex V. A8). It is filed as physicochemical. Particulars: HPLC gradient method, acetonitrile/0.1% aqueous phosphoric acid.
Where [1] appears, read: E/Z mixture, first value (matches the E isomer).
Setting [2] is: E/Z mixture, second printed value (matches the Z isomer).
The mark [3] stands for this setting: single isomer (E or Z as in isomer column).

The values that follow come from patent US6441043B1, “Glyoxylic acid amides” (priority 1997, dated 2002).

In the case of `CCOc1ccc(CCNC(=O)C(=NOC)c2ccc(Br)cc2)cc1OC` (mixture of isomers) [Example 3], the logP reads like this: under setting [1], 3.18; under setting [2], 3.44.

For `CCOc1ccc(CCNC(=O)C(=NOC)c2ccc(C)cc2)cc1OC` (mixture of isomers) [Example 5], the logP runs as follows: under setting [1], 2.87; under setting [2], 3.05. For `CCOc1ccc(CCNC(=O)C(=NOC)c2ccc(CC)cc2)cc1OC` (mixture of isomers) [Example 6], in that order: 3.21 and 3.40. For `CCON=C(C(=O)NCCc1ccc(OCC)c(OC)c1)c1ccc(Br)cc1` (mixture of isomers) [Example 19], in that order: 3.51 and 3.80. For `CCON=C(C(=O)NCCc1ccc(OCC)c(OC)c1)c1ccc(Cl)cc1` (mixture of isomers) [Example 21], in that order: 3.41 and 3.69. `CCON=C(C(=O)NCCc1ccc(OCC)c(OC)c1)c1ccc(C)cc1` (mixture of isomers) [Example 22]: the logP was determined as 3.19 under setting [1] and 3.48 under setting [2]. For `CCON=C(C(=O)NCCc1ccc(OCC)c(OC)c1)c1ccc(CC)cc1` (mixture of isomers) [Example 23], in that order: 3.55 and 3.85. `CCOc1ccc(CCNC(=O)C(=NOC)c2ccc(Cl)cc2)cc1OC` (racemic) [Example 1, N-[2-(4-ethoxy-3-methoxyphenyl)-1-ethyl]-2-methoxyimino-2-(4-chlorophenyl)-acetamide]: the chromatographic logP stood at 3.08 under setting [1] and 3.26 under setting [2]. For the compound `CCOc1ccc(CCNC(=O)C(=NOC)c2ccc(Br)cc2)cc1OC` [Example 9], the logP under setting [3] is 3.44. For `CCOc1ccc(CCNC(=O)C(=NOC)c2ccc(Br)cc2)cc1OC` [Example 10], the log partition coefficient (logP) under setting [3] turned out to be 3.18.

Turning to `CCOc1ccc(CCNC(=O)C(=NOC)c2ccc(Cl)cc2)cc1OC` [Example 11], the logP under setting [3] is reported as 3.08. Same read-out and setting: as for `CCOc1ccc(CCNC(=O)C(=NOC)c2ccc(Cl)cc2)cc1OC` [Example 12], the figure is 3.26; as for `CCOc1ccc(CCNC(=O)C(=NOC)c2ccc(C)cc2)cc1OC` [Example 15], 2.87; as for `CCOc1ccc(CCNC(=O)C(=NOC)c2ccc(CC)cc2)cc1OC` [Example 16], 3.04. `CCOc1ccc(CCNC(=O)C(=NOC)c2ccc(CC)cc2)cc1OC` [Example 17]: the logP under setting [3] is 3.21. `CCON=C(C(=O)NCCc1ccc(OCC)c(OC)c1)c1ccc(Br)cc1` [Example 24] registered a logP under setting [3] of 3.80. The same measure, in the same setting: as for `CCON=C(C(=O)NCCc1ccc(OCC)c(OC)c1)c1ccc(C)cc1` [Example 27], the figure is 3.48.
